Laboratory results reported in patent publication US10151529B2, “Dynamic suspension drying (DSD) to control Ostwald Ripening” (HOVIONE INTERNATIONAL LTD, priority 2013, dated 2018).

Legend:
Type in all cases: physicochemical
[1] = Particle size (in-process control) after high pressure homogenization and during spray drying, with and without DSD
Description: 1. Mometasone furoate monohydrate (2330 g) was suspended in water (23000 g) and stirred for 5 hours in order to obtain a uniform suspension; afterwards, it was fed to a lab scale HPH apparatus operating at pressures ranging from 757.5 to 1363.5 bar in recirculation mode (returning the discharge of the HPH to the stirred vessel inlet), having this step ended with a Dv50˜2 μm after 63 hours of operation;
2. After the homogenization step described in point 1. above, particle size of the active pharmaceutical ingredient was within target and the suspension was fed to a lab scale spray dryer in order to isolate the active pharmaceutical ingredient in the form of a powder;
3. […] Due to this unstable behavior (the final material properties were trending out of targets) the batch had to be interrupted to accommodate an investigation.
6. In order to move forward with the manufacturing of the mentioned batch and following ones, the dynamic suspension drying (DSD) was applied targeting the stabilization of the suspension during drying for that purpose the suspension was recycled at a moderated pressure of 455 bar.

[2] = Laboratory study of Ostwald Ripening: particle size growth of size-reduced suspensions stored at different temperatures, LSW model fit
Description: 4. In order to confirm that the observed PS instability was being caused by OR phenomenon, a laboratorial study was designed. In this study, two suspensions of MFM were size-reduced via HPH to a different PS (D50=2.0 μm and 3.0 μm) and, afterwards, stored at different temperatures (5° C. and 45° C.). In all cases, PS growth was monitored by considering […] sampling time points (24, 72, 144 and 168 h).
Before fitting the obtained data, a literature review was conducted; several models can be found for OR modeling, with most of them being modifications of the Lifshitz, Slyozov and Wagner (LSW) theory (Eq. 1), which is a kinetic model that translates an isothermal variation of the more general problem (M. Mrotzek, 2008): […]
Based on the above equation, two important observations (M. Mrotzek, 2008) (V. Sadtler, 2002) are expected when in the presence of OR: i) a cubic or quadratic growth (depending on the limiting step) and ii) a more pronounced increase of K for higher temperatures. As shown in FIG. 2 (left plot), both previous observations are valid for the current case-study, thus supporting the presence of OR; in this plot, r^3-r0^3 was represented as a function of time and the K value determined by performing a linear regression where Eq. 1 was assumed as the theoretical model; as shown in […] (right plot) a good correlation coefficient was obtained (R^2=0.94).

[3] = XRPD analysis of crystalline form after DSD
Source text: 8. The crystalline form was kept unchanged, as confirmed by XRPD analysis. 9. Through this delicate balance, stabilization of the suspension is accomplished (FIG. 3) in a simpler, effective, reproducible and easily scalable way; additionally, no impact on the polymorphic form was noticeable by XPRD analysis.

## C[C@@H]1C[C@H]2[C@@H]3CCC4=CC(=O)C=C[C@]4(C)[C@@]3(Cl)[C@@H](O)C[C@]2(C)[C@@]1(OC(=O)c1ccco1)C(=O)CCl [Mometasone furoate monohydrate]
[1]; suspension in water, HPH at 757.5 to 1363.5 bar in recirculation mode, after 63 hours of operation
  Dv50 at end of HPH step: ~2 μm
[1]; suspension kept under stirring in feed vessel, no DSD, FIG. 2
  particle size trend during isolating step (spray drying) without recirculation: increasing values of particle size were observed over time
[1]; suspension recycled to HPH at 455 bar during drying, on average, FIG. 4
  Dv50 of isolated product manufactured through DSD: ~2 μm
[2]; D50 ~2 μm, 5° C., water as anti-solvent
  Ostwald Ripening at 5° C. for target D50 range: still significant
[2]; suspensions size-reduced to D50 = 2.0 μm and 3.0 μm, stored at 5° C. and 45° C., up to 168 h
  Ostwald Ripening rate constant K at 5° C. compared to 45° C.: more than five times lower
[3]
  crystalline form after DSD: unchanged
